# Data taken from US11319299B2, “Substituted carboxamides as inhibitors of WDR5 protein-protein binding” (PROPELLON THERAPEUTICS INC., priority 2016, dated 2022).
# Target: WDR5 (Homo sapiens (Human), UniProt P61964)
# Test: Surface Plasmon Resonance (SPR) assay, KD and residence time
# Type: binding
# Settings: surface plasmon resonance (SPR); read-out: WDR5 binding affinity (KD)
row,SMILES,Kd
1,"C[C@@H]1CN(c2cc(F)c(-c3nc(C(=O)N4CCN(C)CC4)cs3)cc2NC(=O)c2c[nH]c(=O)cc2C(F)(F)F)C[C@H](C)N1C [Example 487, N-[4-fluoro-5-[4-(4-methylpiperazine-1-carbonyl)-1,3-thiazol-2-yl]-2-[(3R,5S)-3,4,5-trimethylpiperazin-1-yl]phenyl]-6-oxo-4-(trifluoromethyl)-1H-pyridine-3-carboxamide]",2.81 nM
2,"C[C@@H]1CN(c2cc(F)c(C3=CCN(C(=O)OC4(C)COC4)CC3)cc2NC(=O)c2c[nH]c(=O)cc2C(F)(F)F)C[C@H](C)N1C [Example 488, (3-methyloxetan-3-yl) 4-[2-fluoro-5-[[6-oxo-4-(trifluoromethyl)-1H-pyridine-3-carbonyl]amino]-4-[(3R,5S)-3,4,5-trimethylpiperazin-1-yl]phenyl]-3,6-dihydro-2H-pyridine-1-carboxylate]",4.87 nM
3,"C[C@@H]1CN(c2cc(F)c(C3=CCCN(C(=O)OC4(C)COC4)C3)cc2NC(=O)c2c[nH]c(=O)cc2C(F)(F)F)C[C@H](C)N1C [Example 489, (3-methyloxetan-3-yl) 5-[2-fluoro-5-[[6-oxo-4-(trifluoromethyl)-1H-pyridine-3-carbonyl]amino]-4-[(3R,5S)-3,4,5-trimethylpiperazin-1-yl]phenyl]-3,6-dihydro-2H-pyridine-1-carboxylate]",2.74 nM
4,"C[C@@H]1CN(c2cc(F)c(C3=CCN(C(=O)OC4(C)COC4)C3)cc2NC(=O)c2c[nH]c(=O)cc2C(F)(F)F)C[C@H](C)N1C [Example 490, (3-methyloxetan-3-yl) 3-[2-fluoro-5-[[6-oxo-4-(trifluoromethyl)-1H-pyridine-3-carbonyl]amino]-4-[(3R,5S)-3,4,5-trimethylpiperazin-1-yl]phenyl]-2,5-dihydropyrrole-1-carboxylate]",3.24 nM
5,"C[C@@H]1CN(c2cc(F)c(-c3ccc(CN4CCOCC4)s3)cc2NC(=O)c2c[nH]c(=O)cc2C(F)(F)F)C[C@H](C)N1C [Example 491, N-[4-fluoro-5-[5-(morpholin-4-ylmethyl)thiophen-2-yl]-2-[(3R,5S)-3,4,5-trimethylpiperazin-1-yl]phenyl]-6-oxo-4-(trifluoromethyl)-1H-pyridine-3-carboxamide]",3.59 nM
6,"C[C@@H]1CN(c2cc(F)c(-c3cccs3)cc2NC(=O)c2c[nH]c(=O)cc2C(F)(F)F)C[C@H](C)N1C [Example 492, N-[4-fluoro-2-[(3R,5S)-3,4,5-trimethylpiperazin-1-yl]-5-thiophen-2-ylphenyl]-6-oxo-4-(trifluoromethyl)-1H-pyridine-3-carboxamide]",3.35 nM
7,"C[C@@H]1CN(c2cc(F)c(-c3ccsc3)cc2NC(=O)c2c[nH]c(=O)cc2C(F)(F)F)C[C@H](C)N1C [Example 493, N-[4-fluoro-2-[(3R,5S)-3,4,5-trimethylpiperazin-1-yl]-5-thiophen-3-ylphenyl]-6-oxo-4-(trifluoromethyl)-1H-pyridine-3-carboxamide]",2.86 nM
8,"C[C@@H]1CN(c2cc(F)c(-c3csc(CN4CCOCC4)c3)cc2NC(=O)c2c[nH]c(=O)cc2C(F)(F)F)C[C@H](C)N1C [Example 494, N-[4-fluoro-5-[5-(morpholin-4-ylmethyl)thiophen-3-yl]-2-[(3R,5S)-3,4,5-trimethylpiperazin-1-yl]phenyl]-6-oxo-4-(trifluoromethyl)-1H-pyridine-3-carboxamide]",3.01 nM
9,"C[C@@H]1CN(c2cc(F)c(-c3ncc(C(=O)NCC4CC4)s3)cc2NC(=O)c2c[nH]c(=O)cc2C(F)(F)F)C[C@H](C)N1C [Example 496, N-(cyclopropylmethyl)-2-[2-fluoro-5-[[6-oxo-4-(trifluoromethyl)-1H-pyridine-3-carbonyl]amino]-4-[(3R,5S)-3,4,5-trimethylpiperazin-1-yl]phenyl]-1,3-thiazole-5-carboxamide]",3.03 nM
